PMC12595484, “Optimizing multifunctional fluorescent ligands for intracellular labeling” (Proceedings of the National Academy of Sciences of the …, 2025)

Test system: OMP25–msGFP–HaloTag fusion protein in HEK293T cells
Experiment: Pulse–chase HaloTag labeling efficiency, SDS–PAGE/in-gel fluorescence
Assay type: cell-based
Settings: 2 h, mean ± SEM
Method: PBS, 2% (v/v) SDS, 1% (v/v) Triton x-100, 10 mM EDTA, and protease inhibitors (2 mM PMSF, aprotinin, leupeptin, and pepstatin A). Samples were then incubated at 50 °C for 3–4 min after the addition of Laemmli sample buffer (SB; Bio-Rad, 1610747) with β-mercaptoethanol (Bio-Rad, 1610710). For protein detection, 10–20 µL of the sample was subjected to SDS-PAGE, using 10% Tris-Glycine gels (TGX) (Bio-Rad, 5671034) with Tris-Glycine buffer (Bio-Rad, 1610732). […]
Quantification of HaloTag labeling efficiency using in-gel fluorescence. HEK293T cells were cultured, incubated and transfected with pF(UG) hSyn HaloTag-TEV-4×GS-msGFP-mito using lipofectamine LTX reagent as described above. To examine saturation of HaloTag, we screened for fluorescence plateau using 1 μM of JF479-HaloTag ligand,4 JF549-HaloTag ligand (2HTL) and […]
(2HTL) and JF608-HaloTag ligand (3HTL) reached a fluorescence plateau, and they were chosen as saturating counter stains or “chase” dyes for examining the labeling efficiency of biotin-JF-HaloTag ligands (13HTL–16HTL). Next, we developed an in-gel assay to independently quantitate labeling efficiencies of 13HTL–16HTL. We used JF549-HaloTag ligand (2HTL) as chase for evaluating biotin-JF608-HaloTag ligand (14HTL), biotin-JF646-HaloTag ligand (15HTL), and biotin-JF635-HaloTag ligand (16HTL). We used JF608-HaloTag ligand (3HTL) as chase for evaluating biotin-JF549-HaloTag ligand (13HTL). Each experiment consisted of testing the biotin variants 13HTL–16HTL at 100 nM and 1 μM with an incubation time of 2 h and a chase labeling incubation of 1 μM for 0.5 h. The 0.5 h chase labeling period was included with the 2 h total incubation. Each experiment consisted of the following conditions: untransfected cells; (A) transduced, but no dye; (B) non-biotinylated variant of primary label at 1 μM for 0.5 h; (C) the nonbiotinylated version of the chase JF dye at 1 μM for 0.5 h; (D) 100 nM of the nonbiotinylated version of the primary label for 2 h; (E) 100 nM of the biotinylated version of primary label for 2 h; (F) 1 μM of the nonbiotinylated version of the primary label for 2 h; (G) 1 μM of the biotinylated version of primary label for 2 h; and (H) 1 μM of the non-biotinylated version of the chase JF dye at 1 μM for 2 h. This last condition H was the same as condition C but with a longer incubation (2 h vs. 0.5 h) to allow independent verification of the chase saturation using 0.5 h incubation. Samples D–G were incubated with a nonbiotinylated chase dye at 1 μM for 0.5 h. Cells were washed and protein lysates were harvested using Bio-Rad SDS-PAGE products as described above. Specifically, cells were lysed using protein lysis buffer as described above, and adding XT Sample Buffer (Bio-Rad, 1610791) and XT Reducing Agent (Bio-Rad, 1610792). Samples were heated at 72 °C for 5 min. Samples were then loaded onto a 4–12% Criterion XT Bis-Tris gel (Bio-Rad, 3450124) and ran at 150 V for approximately 1 h. Gels were then imaged on a Chemidoc MP imager (Bio-Rad) using orange, red, and far-red filters. Bands representing HaloTag ligand were quantified by densitometry using […]
labeling efficiency calculations, bands representing saturating chase dye fluorescence (e.g., JF549) were compared to saturating primary dye fluorescence allowing estimation of the amount of […]
Where F is the fraction of HaloTag protein labeled, Ce is the experimental chase dye fluorescence signal after incubation with pulse biotin-JF-HaloTag ligand, and Cs is the saturating chase dye fluorescence without incubation with a pulse ligand.
Neuro2a cell culture, labeling, lattice light sheet microscopy (LLSM), and confocal microscopy. Neuro2a cells (ATCC, CCL-131) were cultured in Eagle's minimum essential medium (MEM, phenol red-free; Life Technologies) supplemented with 10% (v/v) fetal bovine serum (FBS), and maintained at 37 °C in a humidified 5% (v/v) CO2 environment. Cells were transiently transfected using nucleofection (Lonza) with plasmids constitutively expressing

| Structure (SMILES) | labeling efficiency (100 nM pulse) [%] | labeling efficiency (1 µM pulse) [%] |
| --- | --- | --- |
| O=C(CCCCC1SCC2NC(=O)NC21)NCCOCCOCCNC(=O)C1C[N+](=c2ccc3c(-c4cc(C(=O)NCCOCCOCCCCCCCl)ccc4C(=O)[O-])c4ccc(N5CCC5)cc4oc-3c2)C1 (centres unmarked) [13HTL, biotin–JF549–HaloTag ligand] | < 3 | < 3 |
| CC1(C)C2=CC(=[N+]3CC(C(=O)NCCOCCOCCNC(=O)CCCC[C@@H]4SC[C@@H]5NC(=O)N[C@@H]54)C3)C=CC2=C(c2cc(C(=O)NCCOCCOCCCCCCCl)ccc2C(=O)[O-])c2ccc(N3CCC3)cc21 (some centres unmarked) [14HTL, biotin–JF608–HaloTag ligand] | 11.3 ± 6.4 | 57.7 ± 9.6 |
| C[Si]1(C)C2=CC(=[N+]3CC(C(=O)NCCOCCOCCNC(=O)CCCC[C@@H]4SC[C@@H]5NC(=O)N[C@@H]54)C3)C=CC2=C(c2cc(C(=O)NCCOCCOCCCCCCCl)ccc2C(=O)[O-])c2ccc(N3CCC3)cc21 (some centres unmarked) [15HTL, biotin–JF646–HaloTag ligand] | 13.6 ± 3.7 | 61.7 ± 6.8 |
| C[Si]1(C)C2=CC(=[N+]3CC(F)(C(=O)NCCOCCOCCNC(=O)CCCC[C@@H]4SC[C@@H]5NC(=O)N[C@@H]54)C3)C=CC2=C(c2cc(C(=O)NCCOCCOCCCCCCCl)ccc2C(=O)[O-])c2ccc(N3CC(F)C3)cc21 (some centres unmarked) [16HTL, biotin–JF635–HaloTag ligand] | 18.0 ± 4.9 | 69.0 ± 4.2 |
